The target of experiment [1] is hNav1.1 (SCN1A) (Homo sapiens, UniProt P35498). Briefly: Use-dependent inhibition of the CNS Nav1.1 sodium channel. It is filed as cell-based. The note with it: use-dependent block, 25 Hz, pulse 20, read-out: Nav1.1 UDB 25 Hz 10 uM. The method, boiled down: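 HEK-293 cells stably expressing WT hNav1.1, automated whole-cell patch clamp at 23-25 °C with CsF-based internal and NaCl external solutions, pH 7.35. Compound applied twice, 200 s equilibration; block measured at pulse 20 of a 25 Hz train (0 mV, 20 ms) from −120 mV, as mean % inhibition versus compound-free.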

Experiment [2] concerns the target T1, hNaV1.2 (SCN2A) (Homo sapiens, UniProt Q99250).
T1 construct: expressed in transfected cells
Put plainly: Use-dependent inhibition of the CNS Nav1.2 sodium channel. Type of experiment: cell-based. To be noted: use-dependent block, 25 Hz, pulse 20, read-out: Nav1.2 UDB 25 Hz 10 uM. Put shortly:
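Use-dependent block of human Nav1.2 was measured by automated whole-cell patch clamp (QPatch) in HEK-293 cells stably expressing hNaV1.2 with SCN1B and SCN2B. From a holding potential of −120 mV, a train of 20 pulses to 0 mV (20 ms, 25 Hz) was applied. Peak current at pulse 20 was normalized to the first pulse, and percent inhibition was calculated relative to compound-free recordings.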

Each structure is given as a SMILES string.

T1 sequence (Q99250 whole entry): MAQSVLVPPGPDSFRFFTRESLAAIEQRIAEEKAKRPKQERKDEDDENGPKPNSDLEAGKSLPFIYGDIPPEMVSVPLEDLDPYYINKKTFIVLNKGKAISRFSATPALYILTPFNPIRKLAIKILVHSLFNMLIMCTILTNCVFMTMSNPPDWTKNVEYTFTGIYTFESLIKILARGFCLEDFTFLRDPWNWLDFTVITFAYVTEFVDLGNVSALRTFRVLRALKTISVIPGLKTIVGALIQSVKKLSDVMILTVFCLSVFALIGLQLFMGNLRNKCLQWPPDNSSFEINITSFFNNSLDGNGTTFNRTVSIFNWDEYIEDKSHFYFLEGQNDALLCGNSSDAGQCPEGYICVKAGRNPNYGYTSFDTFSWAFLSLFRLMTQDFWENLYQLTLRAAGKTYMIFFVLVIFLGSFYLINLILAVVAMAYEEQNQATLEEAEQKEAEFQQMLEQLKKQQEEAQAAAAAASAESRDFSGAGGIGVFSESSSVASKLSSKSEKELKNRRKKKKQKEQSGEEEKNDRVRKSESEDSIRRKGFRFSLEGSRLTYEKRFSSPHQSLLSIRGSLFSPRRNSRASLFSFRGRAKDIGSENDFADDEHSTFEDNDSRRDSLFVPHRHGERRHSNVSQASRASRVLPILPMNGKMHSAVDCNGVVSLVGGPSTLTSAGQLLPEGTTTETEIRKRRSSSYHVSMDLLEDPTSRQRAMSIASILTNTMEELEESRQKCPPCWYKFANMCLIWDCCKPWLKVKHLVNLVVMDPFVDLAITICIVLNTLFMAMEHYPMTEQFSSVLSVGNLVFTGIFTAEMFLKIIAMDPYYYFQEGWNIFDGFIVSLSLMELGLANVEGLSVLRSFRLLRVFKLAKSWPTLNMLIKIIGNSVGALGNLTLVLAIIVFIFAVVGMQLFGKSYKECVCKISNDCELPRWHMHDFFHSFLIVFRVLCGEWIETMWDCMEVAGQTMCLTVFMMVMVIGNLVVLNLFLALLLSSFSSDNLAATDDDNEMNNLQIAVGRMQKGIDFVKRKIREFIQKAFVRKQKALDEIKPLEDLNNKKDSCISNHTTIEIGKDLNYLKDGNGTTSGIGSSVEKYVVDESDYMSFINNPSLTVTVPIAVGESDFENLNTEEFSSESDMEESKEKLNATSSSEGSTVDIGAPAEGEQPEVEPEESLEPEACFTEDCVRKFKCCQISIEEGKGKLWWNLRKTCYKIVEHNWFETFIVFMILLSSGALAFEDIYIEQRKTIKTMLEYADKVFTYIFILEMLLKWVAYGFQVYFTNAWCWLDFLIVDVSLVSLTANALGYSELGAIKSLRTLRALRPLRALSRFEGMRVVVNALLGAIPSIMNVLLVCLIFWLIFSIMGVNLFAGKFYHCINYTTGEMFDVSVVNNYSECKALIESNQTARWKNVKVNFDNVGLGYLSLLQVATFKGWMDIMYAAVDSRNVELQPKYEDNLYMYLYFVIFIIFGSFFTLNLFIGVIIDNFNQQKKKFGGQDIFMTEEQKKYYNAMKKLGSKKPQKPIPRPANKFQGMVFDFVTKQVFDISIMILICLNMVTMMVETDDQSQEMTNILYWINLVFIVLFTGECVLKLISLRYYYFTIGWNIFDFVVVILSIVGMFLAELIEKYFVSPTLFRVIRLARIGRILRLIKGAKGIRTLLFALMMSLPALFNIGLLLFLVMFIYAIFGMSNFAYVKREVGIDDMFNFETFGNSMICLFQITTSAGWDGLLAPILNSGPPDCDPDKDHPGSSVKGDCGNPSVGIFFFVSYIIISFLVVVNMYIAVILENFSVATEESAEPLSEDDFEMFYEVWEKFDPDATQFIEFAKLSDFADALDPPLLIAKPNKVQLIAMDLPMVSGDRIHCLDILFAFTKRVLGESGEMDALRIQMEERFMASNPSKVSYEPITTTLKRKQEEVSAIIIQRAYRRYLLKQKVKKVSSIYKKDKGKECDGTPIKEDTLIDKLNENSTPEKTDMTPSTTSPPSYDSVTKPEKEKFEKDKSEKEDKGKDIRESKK
T1 sequence (Q07699 19-218 partner): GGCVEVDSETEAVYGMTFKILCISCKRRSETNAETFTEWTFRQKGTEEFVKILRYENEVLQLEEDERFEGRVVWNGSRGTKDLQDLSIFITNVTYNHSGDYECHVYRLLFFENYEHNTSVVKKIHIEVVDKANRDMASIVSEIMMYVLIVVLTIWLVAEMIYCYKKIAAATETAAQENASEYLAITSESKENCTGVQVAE
T1 sequence (O60939 30-215 partner): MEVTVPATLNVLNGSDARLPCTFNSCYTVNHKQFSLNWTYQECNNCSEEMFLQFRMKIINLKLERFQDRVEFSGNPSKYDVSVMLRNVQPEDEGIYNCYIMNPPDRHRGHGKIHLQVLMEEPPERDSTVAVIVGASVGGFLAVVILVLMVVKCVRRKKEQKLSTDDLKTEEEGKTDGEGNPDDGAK

`Cc1cc2onc(OCc3ncccn3)c2cc1-c1ccc(OC(F)(F)F)cc1` [Example 26, 6-methyl-3-(pyrimidin-2-ylmethoxy)-5-(4-(trifluoromethoxy)phenyl)benzo[d]isoxazole]: the inhibition at 10 µM is 58.6% in experiment [1] and less than 5% in experiment [2].

With `COc1cc(-c2ccc(C(F)(F)F)cc2F)cc2c(OCc3ncccn3)noc12` [Example 24, 5-(2-fluoro-4-(trifluoromethyl)phenyl)-7-methoxy-3-(pyrimidin-2-ylmethoxy)benzo[d]isoxazole], the inhibition at 10 µM in experiment [1] and in experiment [2] was less than 5% in each case.

As for `CC(Oc1noc2ccc(-c3ccc(OC(F)(F)F)cc3)cc12)c1ccccn1` (stereo not shown) [Example 98, 3-(1-(pyridin-2-yl)ethoxy)-5-(4-(trifluoromethoxy)phenyl)benzo[d]isoxazole], the inhibition at 10 µM in experiment [1] was 15.9%; in experiment [2] it was less than 5%.

For `FC(F)(F)COc1ccc(-c2ccc3onc(OCc4ncccn4)c3c2)cn1` [Example 21, 3-(pyrimidin-2-ylmethoxy)-5-(6-(2,2,2-trifluoroethoxy)pyridin-3-yl)benzo[d]isoxazole], the inhibition at 10 µM in experiment [1] and in experiment [2] was less than 5% each time.

In the case of `FC(F)(F)Oc1ccc(-c2ccc3onc(OCCN4CCOCC4)c3c2)cc1` [Example 78, 3-(2-morpholinoethoxy)-5-(4-(trifluoromethoxy)phenyl)benzo[d]isoxazole], the inhibition at 10 µM in experiment [1] was 39.9%; in experiment [2], 32.8%.

As for `Fc1cc(C(F)(F)F)ccc1-c1cc2c(OCc3ncccn3)noc2cc1F` [Example 33, 6-fluoro-5-(2-fluoro-4-(trifluoromethyl)phenyl)-3-(pyrimidin-2-ylmethoxy)benzo[d]isoxazole], the inhibition at 10 µM was less than 5% in experiment [1] and 5.5% in experiment [2].

As for `FC(F)(F)Oc1ccc(-c2ccc3onc(OCc4nccn4-c4ccccc4)c3c2)cc1` [Example 64, 3-((1-phenyl-1H-imidazol-2-yl)methoxy)-5-(4-(trifluoromethoxy)phenyl)benzo[d]isoxazole], the inhibition at 10 µM was determined as 33.2% in experiment [1] and 34.7% in experiment [2].

Consider `O=C1CCCN1CCOc1noc2c(F)cc(-c3ccc(OC(F)(F)F)cc3)cc12` [Example 80, 1-(2-((7-fluoro-5-(4-(trifluoromethoxy)phenyl)benzo[d]isoxazol-3-yl)oxy)ethyl)pyrrolidin-2-one], for which the inhibition at 10 µM in experiment [1] worked out at 19.8%; in experiment [2], 17.5%.

Consider `FC1(F)Oc2ccc(-c3ccc4onc(OCc5ncccn5)c4c3)cc2O1` [Example 30, 5-(2,2-difluorobenzo[d][1,3]dioxol-5-yl)-3-(pyrimidin-2-ylmethoxy)benzo[d]isoxazole], for which the inhibition at 10 µM in experiment [1] and in experiment [2] was less than 5% in each case.

`FC(F)(F)Oc1ccc(-c2ccc3onc(OCCn4cnnc4)c3c2)cc1` [Example 63, 3-(2-(4H-1,2,4-triazol-4-yl)ethoxy)-5-(4-(trifluoromethoxy)phenyl)benzo[d]isoxazole]: the inhibition at 10 µM stood at 77.6% in experiment [1] and 68% in experiment [2].

As for `FC(F)(F)Oc1ccc(-c2ccc3onc(OCc4cn5ccccc5n4)c3c2)cc1` [Example 51, 3-(imidazo[1,2-a]pyridin-2-ylmethoxy)-5-(4-(trifluoromethoxy)phenyl)benzo[d]isoxazole], the figures for the inhibition at 10 µM in experiment [1] and in experiment [2] were 30% and 15.7%, respectively.

The record behind these values is patent publication US9416115B2, “Fused heterocyclic compounds as ion channel modulators” (Gilead Sciences, Inc., priority 2013, dated 2016).
